From article PMC12668310, “High‐Throughput Synthesis and Screening of a Cyanimide Library Identifies Selective Inhibitors of ISG15‐Specific Protease mUSP18” (Angewandte Chemie (International Ed. in English), 2025)
Read-outs that look alike come from different tables or passages of the source.

Molecular target: T1, mUSP18 (Mus musculus, UniProt Q9WTV6)
T1 construct: (46-368); His-tag (N); made in house
T1 sequence (Q9WTV6 46-368): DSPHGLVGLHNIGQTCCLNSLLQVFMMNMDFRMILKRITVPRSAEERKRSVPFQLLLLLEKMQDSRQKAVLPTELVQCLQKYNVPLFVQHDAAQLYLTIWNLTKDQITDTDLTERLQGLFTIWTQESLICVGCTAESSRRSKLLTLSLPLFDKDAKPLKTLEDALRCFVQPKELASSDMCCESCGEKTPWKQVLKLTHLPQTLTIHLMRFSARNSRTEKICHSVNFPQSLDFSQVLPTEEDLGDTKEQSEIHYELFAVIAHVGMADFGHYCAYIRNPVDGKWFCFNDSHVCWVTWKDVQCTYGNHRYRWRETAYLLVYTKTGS
Test: High-throughput screening, ISG15ct-RhoMP, single dose 1.25 µM
Assay type: biochemical, murine

[1] = mUSP18 %inhibition, carboxylic acid (CA) building block alone, read-out: %inh CA only
[2] = mUSP18 %inhibition, carboxylic acid (CA) with coupling reagents DIC/HOBT, read-out: %inh CA + DIC/HOBT

Row | inhibition at 1.25 µM [1] | inhibition at 1.25 µM [2] | inhibition of mUSP18 by individual CA's and coupling reagents (screened with and without DIC/HOBt) | %inh CA only (mUSP18 %inhibition, carboxylic acid (CA) building block alone) | %inh CA + DIC/HOBT (mUSP18 %inhibition, carboxylic acid (CA) with coupling reagents DIC/HOBT) | Structure (SMILES)
1 | 4.69% | 5.35% |  |  |  | O=C(O)Cc1ccn(-c2ccccc2)n1 [CA246]
2 | 19.9% | 52.7% | could inhibit mUSP18 |  |  | Cc1nc(-c2c[nH]c(C(=O)O)c2)cs1 [CA245]
3 | 13.7% | 16.4% |  |  |  | O=C(O)c1ncoc1C1CC1 [CA112]
4 |  |  |  | -6.50% | -13.28% | O=C(O)c1cnccn1 [CA081]
5 | 18.6% | 10% |  |  |  | Cn1ncc(C(=O)O)c1-n1cccc1 [CA117]
6 | -3.64% | 0.63% |  |  |  | O=C(O)Cc1cnn(-c2ccccc2)n1 [CA301]
7 | 7.93% | -2.82% |  |  |  | Cc1nc(-c2ccco2)ccc1C(=O)O [CA331]
8 | 5.76% | 5.39% |  |  |  | Cc1csc(N2CCC(C(=O)O)CC2)n1 [CA274]
9 | 6.43% | 1.42% |  |  |  | O=C(O)c1csc(-c2ccc(Br)s2)n1 [CA292]
10 | 1.55% | 4.49% |  |  |  | O=C(O)c1occc1CN1CCOCC1 [CA206]
11 | 10.4% | 2.36% |  |  |  | O=C(O)C(=O)N1CCN(c2ccccc2)CC1 [CA261]
12 | 0.41% | 3.46% |  |  |  | O=C(O)c1ccc(-c2ccccn2)s1 [CA341]
13 | 6.21% | 0.7% |  |  |  | O=C(O)c1cc(-n2cccc2)ccn1 [CA362]
14 | 3.09% | -0.29% |  |  |  | O=C(O)c1cccc(N2CCOCC2)n1 [CA360]
15 | 3.97% | -4.92% |  |  |  | O=C(O)C1CC2CCC1O2 (stereo not shown) [CA356]
16 | -2.59% | -11.3% |  |  |  | Cc1cncc(C(=O)O)c1 [CA010]

Row | inhibition at 1.25 µM [1] | inhibition at 1.25 µM [2] | inhibition of mUSP18 by individual CA's and coupling reagents (screened with and without DIC/HOBt) | %inh CA only (mUSP18 %inhibition, carboxylic acid (CA) building block alone) | %inh CA + DIC/HOBT (mUSP18 %inhibition, carboxylic acid (CA) with coupling reagents DIC/HOBT) | Structure (SMILES)
17 | 0.78% | 1.18% |  |  |  | O=C(O)CC1CCN(c2ccc(C(F)(F)F)cn2)CC1 [CA374]
18 | 18.6% | 0.52% |  |  |  | Cc1ccc(N(CCC(=O)O)S(=O)(=O)c2ccccc2)cc1 [CA163]
19 | 0.33% | 14.3% |  |  |  | O=C(O)c1cc(C2CC2)n[nH]1 [CA293]
20 | -2.06% | -10.4% |  |  |  | Cn1c(=O)c2c(ncn2CC(=O)O)n(C)c1=O [CA018]
21 | 1.59% | -10.4% |  |  |  | Cc1nc(-c2ccsc2)ccc1C(=O)O [CA378]
22 | -2.57% | -1.91% |  |  |  | Cc1cc(C(=O)O)c(C)n1-c1cccnc1 [CA297]
23 | 5.6% | 6.49% |  |  |  | O=C(O)c1ccc(OCn2cc(Cl)cn2)cc1 [CA231]
24 | -3.59% | -10.1% |  |  |  | Cc1c(Br)cccc1C(=O)O [CA031]
25 | 10.4% | 12.2% |  |  |  | CCC(C(=O)O)n1nnc(-c2ccsc2)n1 (stereo not shown) [CA109]
26 | 5.77% | -5.31% |  |  |  | Cc1nn(-c2cccnc2)nc1C(=O)O [CA314]
27 | 0.78% | -7.39% |  |  |  | O=Cc1cccc(C(=O)O)c1 [CA046]
28 | -1.54% | -0.28% |  |  |  | CC(C)c1cc(C(=O)O)n(-c2ccccc2)n1 [CA460]
29 | -4.05% | -6.74% |  |  |  | O=C(O)C1CCCN(c2ncccn2)C1 (stereo not shown) [CA411]
30 | -3.22% | 5.85% |  |  |  | O=C(O)c1cc(C2CC2)no1 [CA349]
31 | 1.29% | 5.26% |  |  |  | O=C(O)c1sccc1S(=O)(=O)NC1CCCCCC1 [CA367]

The remaining lines, values behind:

Row | Structure (SMILES) | inhibition at 1.25 µM [1] | inhibition at 1.25 µM [2] | inhibition of mUSP18 by individual CA's and coupling reagents (screened with and without DIC/HOBt) | %inh CA only (mUSP18 %inhibition, carboxylic acid (CA) building block alone) | %inh CA + DIC/HOBT (mUSP18 %inhibition, carboxylic acid (CA) with coupling reagents DIC/HOBT)
32 | O=C(O)C1CCN(C(=O)N2CCOCC2)CC1 [CA444] | -6.76% | -0.57% |  |  | 
33 | O=C(O)c1c[nH]nc1-c1ccncc1 [CA408] | -2.77% | -3.75% |  |  | 
34 | Cn1nc(C(=O)N2CCOCC2)cc1C(=O)O [CA218] | 7.94% | 0.97% |  |  | 
35 | O=C(O)C1CC(=O)N(CCOc2ccccc2Cl)C1 (stereo not shown) [CA185] | 3.64% | 9.2% |  |  | 
36 | CC(C)(C)OC(=O)N1CC[C@H](C(=O)O)C1 [CA067] | -11.3% | -14.4% |  |  | 
37 | O=C(O)c1ccn(-c2ncc(C(F)(F)F)cc2Cl)n1 [CA135] | 4.28% | 10.4% |  |  | 
38 | O=C(O)c1coc(C#Cc2ccccc2)c1 [CA393] | -1.56% | -1.99% |  |  | 
39 | COc1ccc(S(=O)(=O)N(CCC(=O)O)Cc2ccccc2)cc1 [CA424] | 3.84% | -12.6% |  |  | 
40 | O=C(O)c1cccc(Cn2cncn2)c1 [CA361] | -2.66% | 0.1% |  |  | 
41 | O=C(O)C1CCOC2(CCC2)C1 (stereo not shown) [CA220] | 7.46% | -0.86% |  |  | 
42 | O=C(O)c1cc(OCc2ccccc2)ccn1 [CA150] | 3.17% | 5.95% |  |  | 
43 | CCC1(Cn2cc(C(=O)O)nn2)COC1 [CA167] | 10.3% | 2.71% |  |  | 
44 | O=C(O)CC(O)(c1nccn1Cc1ccccc1)C(F)(F)F (stereo not shown) [CA113] | 9.19% | 16.2% |  |  | 
45 | O=C(O)c1ccccc1OCc1ccncc1 [CA129] | 8.78% | 10.2% |  |  | 
46 | CC1CCCC(N2CC(C(=O)O)CC2=O)C1C (stereo not shown) [CA237] | 7.37% | -3.69% |  |  | 
47 | O=C(O)c1csc(C2CCCCC2)n1 [CA353] | 14.4% | 1.26% |  |  | 

Row | Structure (SMILES) | inhibition at 1.25 µM [1] | inhibition at 1.25 µM [2] | inhibition of mUSP18 by individual CA's and coupling reagents (screened with and without DIC/HOBt) | %inh CA only (mUSP18 %inhibition, carboxylic acid (CA) building block alone) | %inh CA + DIC/HOBT (mUSP18 %inhibition, carboxylic acid (CA) with coupling reagents DIC/HOBT)
48 | O=C(O)c1cn(CC2CCCO2)nn1 (stereo not shown) [CA270] | 7.51% | 8.31% |  |  | 
49 | Cc1ccc(S(=O)(=O)NCCc2ccc(F)cc2)cc1C(=O)O [CA330] | 11.3% | -0.35% |  |  | 
50 | Cn1cc(NS(=O)(=O)c2ccsc2C(=O)O)cn1 [CA137] | 3.97% | 20.1% |  |  | 
51 | CNc1ccc(C(=O)O)cc1 [CA052] | -7.36% | -19.1% |  |  | 
52 | O=C(O)c1ccc(-c2ccccn2)nc1 [CA357] | 4.64% | -1.59% |  |  | 
53 | O=C(NCc1ccc(C(=O)O)cc1)OCC1c2ccccc2-c2ccccc21 [CA061] | 13.4% | -3.66% |  |  | 
54 | COCC(=O)O [CA080] | -8.74% | -15.7% |  |  | 
55 | O=C(O)c1cnoc1-c1ccccc1C(F)(F)F [CA269] | 6.72% | 5.54% |  |  | 
56 | O=C(O)C1CC(=O)N(C2CCCCCC2)C1 (stereo not shown) [CA247] | 2.25% | 4.63% |  |  | 
57 | Cc1ccc(N2CCCC(C(=O)O)C2)nc1 (stereo not shown) [CA254] | -2.11% | 7.64% |  |  | 
58 | Cc1ccc([1C@@H]2C[1C@H]2C(=O)O)s1 [CA272] | 5.08% | 8.26% |  |  | 
59 | O=C(O)c1cccc(S(=O)(=O)NCc2cccs2)c1 [CA095] | 14.6% | 10.3% |  |  | 
60 | O=C(O)c1ccnn1C1CCC1 [CA316] | 3.75% | -3.62% |  |  | 
61 | O=Cc1cn(CC(=O)O)c2ccccc12 [CA036] | -2.36% | -8.7% |  |  | 
62 | CSCCC(NC(C)=O)C(=O)O (stereo not shown) [CA001] | 4.64% | -9.16% |  |  | 
63 | Cc1nc(-c2cccnc2)sc1C(=O)O [CA212] | 10.5% | 0.87% |  |  | 
